Results on ten compounds are retold here after publication PMC7221740, “Cyclic Synthetic Peroxides Inhibit Growth of Entomopathogenic Fungus Ascosphaera apis without Toxic Effect on Bumblebees” (Molecules, 2020).

Converted amounts (≈) assume the structure as drawn.

Usually inhibition stands for the change of the read-out against control, counted positive when it falls. The term melting point denotes the temperature, or range, at which the solid turns liquid. By IC50 is commonly meant the concentration that inhibits the measured activity by half.

The subject of one data set is Ascosphaera apis. Briefly: Inhibition of radial growth of Ascosphaera apis mycelium in potato-saccharose agar. The data set is classed as cell-based. The settings on record: 72 h; for inhibition at 30 µg/mL / EC50: Ascosphaera apis; for inhibition at 30 µg/mL / Mycelium Growth Inhibition (I), %: A. apis, concentration 30 mg/L, potato-saccharose agar, 25 °C; for inhibition at 30 µg/mL: read-out: Mycelium Growth Inhibition (I), %; for EC50: A. apis mycelium growth, read-out: EC50 (mg/L) ± SD, fungicidal activity.

Data set [1] has as its system A. apis. Further details: method as in PMID 22263693. The settings on record: ref [55]; read-out: IC50 against A. apis; cited from earlier work.
The test system of data set [2] is bumblebees Bombus terrestris L. Briefly: Toxic effect on bumblebees (contact action). The settings on record: concentration not given.
For data set [3] the test system is unchanged. Briefly: Toxic effect on bumblebees (feeding with inverted sugar syrup). Format: in vivo. The settings on record: concentration not given. As to the method: In the next step, we evaluated the toxicity of active peroxides 1–4, 6 towards bumblebees. Two approaches were used for this purpose. The first approach was a contact action of bumblebees with 30 mg/L solution of peroxide in water containing DMSO (5% vol.). The second approach was feeding of bumblebees with inverted sugar syrup containing peroxides 1–4, 6 (the concentration of peroxide was 30 mg/L) and DMSO (5% vol.). The mortality of bumblebees after their contact with solutions of peroxides 1–4, 6 was absent. […] However, after the consumption of sugar syrup containing difenoconazole or penconazole, the ability of bumblebees to fly was decreased by 1.4 times and 1.3 times, respectively (Figure 4). On average, bumblebees from the control group were in flight for 9 min 28 s. After the consumption of syrup with difenoconazole and penconazole (see Materials and methods), the time spent by insects in flight decreased to 6 min 36 s and 7 min 17 s, respectively.
Peroxide 1–4, 6 (0.3 mg or 3.0 mg) was added to 500 µL of DMSO, and the resulting solution was diluted with 60% inverted sugar syrup to 10 mL. After that, 30 mg/L or 300 mg/L solution of peroxide in inverted sugar syrup containing DMSO (5% vol.) was obtained. A solution of DMSO (500 µL) in 60% inverted sugar syrup was used as the control solution. […]

Data set [4] has the same test system. Briefly: Ability of bumblebees to fly. The settings on record: for Ability of bumblebees to fly in the contact action test: peroxides 30 mg/L in water with DMSO (5% vol.); for Decrease of the ability of bumblebees to fly after consumption of sugar syrup: feeding, versus control group. Format: in vivo.
The test system of data set [5] is A. apis. Further details: method as in PMID 30862950. The settings on record: ref [54]; cited from earlier work.

`COc1ccc(C23OOC4(C)OC(C)(CCC42)O3)cc1` (centres unmarked) [Compound 7, 3-(4-Methoxyphenyl)-6,7a-dimethyltetrahydro-3H,4H-3,6-epoxy[1,2]dioxolo[3,4-b]pyran] showed a melting point of 89 to 90 °C. The inhibition at 30 µg/mL in the data set on Ascosphaera apis was found to be 53%.
In the case of `CO/N=C(/C(=O)OC)c1ccccc1COc1ccccc1C` [Kresoxim-methyl 10, Kresoxim-methyl], in the data set on Ascosphaera apis, the “Mycelium Growth Inhibition (I), %” value came out at 88%; the inhibition at 30 µg/mL was less than 100%; the EC50 is less than 1 mg/L. For the same compound, the “Mycelium Growth Inhibition (I), %” value in the data set on Ascosphaera apis (listed as Kresoxim-methyl) is “did not completely inhibit”.
`CCCCCC(=O)O[C@H]1C(=O)c2c(O)cc(O)cc2O[C@@H]1c1ccccc1` [Pinobanksin-3-hexanoate]: the IC50 in the data set with A. apis [1] is 23 ± 2 µM.
Take `CC1COC(Cn2cncn2)(c2ccc(Oc3ccc(Cl)cc3)cc2Cl)O1` (centres unmarked) [difenoconazole]: the “Bumblebee mortality in contact with commercial fungicide” value in data set [2] is “had not increased”. Besides, the “Bumblebee mortality after consumption of syrup with commercial fungicide” value in data set [3] is “had not increased”. For the same compound, in data set [4], the “Ability of bumblebees to fly in the contact action test” value was “did not affect the ability to fly” and the “Decrease of the ability of bumblebees to fly after consumption of sugar syrup” value worked out at 1.4 times.
As for `CCCC(Cn1cncn1)c1ccc(Cl)cc1Cl` (centres unmarked) [penconazole], in data set [2], the “Bumblebee mortality in contact with commercial fungicide” value is listed as “had not increased”. In addition, in data set [3], the “Bumblebee mortality after consumption of syrup with commercial fungicide” value is “had not increased”. Further, in data set [4], the “Ability of bumblebees to fly in the contact action test” value was “did not affect the ability to fly” and the “Decrease of the ability of bumblebees to fly after consumption of sugar syrup” value is reported as 1.3 times.
`CC12OOC(C)(OO1)C2C12CC3CC(CC(C3)C1)C2` (centres unmarked) [Compound 6, 7-(Adamantan-1-yl)-1,4-dimethyl-2,3,5,6-tetraoxabicyclo[2.2.1]heptane] registered a melting point of 130 to 131 °C. In the data set with Ascosphaera apis, the inhibition at 30 µg/mL stood at 94% and the EC50 was 1.6 ± 0.1 mg/L (≈ 6.01 µM).
For the compound `CC(C)(C)C(=O)C(Oc1ccc(Cl)cc1)n1cncn1` (centres unmarked) [Triadimefon 9, Triadimefon], in the data set with Ascosphaera apis, the “Mycelium Growth Inhibition (I), %” value is recorded as 91%; the inhibition at 30 µg/mL is less than 100%; the EC50 came to 7.1 ± 0.8 mg/L (≈ 24.2 µM).
In the case of `COc1ccc(C(=O)/C=C/c2ccc(O)cc2)c(O)c1CC=C(C)C` [4-hydroxyderricin], in the data set on A. apis [5], the “MIC against A. apis” value is 6.25 µg/mL (≈ 18.5 µM).
For `C=CCC12CCC3(C)OC1(C)OOC2(C)O3` [Compound 8, 3a-Allyl-3,6,7a-trimethyltetrahydro-3H,4H-3,6-epoxy[1,2]-dioxolo[3,4-b]pyran], the melting point is 43 to 44 °C. In the data set on Ascosphaera apis, the inhibition at 30 µg/mL stood at 25%.
Regarding `C=CCC1(C(=O)OCC)CCC2(C)OOC1(C)O2` (centres unmarked) [Compound 1, Ethyl-2-allyl-1,5-dimethyl-6,7,8-trioxabicyclo[3.2.1]octane-2-carboxylate], in the data set with Ascosphaera apis, the inhibition at 30 µg/mL is 94% and the EC50 came out at 4 ± 0.2 mg/L (≈ 15.6 µM).
